Laboratory results taken from the NIST ThermoML archive (doi:10.1016/j.tca.2019.02.008).

Experiments:
[1] = Molar enthalpy of transition or fusion; conditions: DSC
[2] = for vapor or sublimation pressure: Transpiration method; for Triple point temperature: DSC

Br.CN [methylammonium bromide]
Conditions	Molar enthalpy of transition or fusion, Crystal 2 [kJ/mol]	Molar enthalpy of transition or fusion, Crystal 3 [kJ/mol]	Triple point temperature, Crystal 1 [K]	Triple point temperature, Crystal 2 [K]	Triple point temperature, Crystal 3 [K]
[1]	3.63	1.47	–	–	–
[2]	–	–	520.5	480.8	392.1

vapor or sublimation pressure [kPa], [2]
Conditions	433 K	444 K	454 K	463 K	468 K	473 K	488 K	493 K	498 K	503 K
Crystal 1	–	–	–	–	–	–	0.1234	0.1563	0.1897	0.2394
Crystal 2	0.0057	0.0104	0.0202	0.0348	0.0413	0.0576	–	–	–	–
